Common to all, as to format: functional, cell-based
Assay [1] deals with PC-3. The experiment in a line: Cytotoxicity against human PC3 cells assessed as reduction in cell viability by MTT assay.
Assay [2] relates to HL-60. In words: Cytotoxicity against human HL60 cells assessed as reduction in cell viability by trypan blue method.
The subject of assay [3] is SGC-7901. The experiment in a line: Cytotoxicity against human SGC7901 cells assessed as reduction in cell viability by MTT assay.
Assay [4] is described as follows: Cytotoxicity against mouse Sp2/0-Ag14 cells.
Assay [5] can be described thus: Cytotoxicity against Med-merk carcinoma cells (unknown origin).
The mark [6] stands for this setting: Homo sapiens, PC-3, read-out: IC50.
[7] abbreviates: Homo sapiens, HL-60, read-out: IC50.

This is an account of results in ChEMBL document CHEMBL4177734, “Cytotoxic quinazoline alkaloids from the seeds of Peganum harmala” (Bioorg Med Chem Lett, 2018).

Take `O[C@@H]1CCN2Cc3ccccc3N=C12`: the concentration for half-maximal inhibition (IC50) in assay [1] (setting [6]) was 15.4 µM; in assay [2] (hl-60), “Not Active”; in assay [3], “Not Active”.
In the case of `O=c1c2ccccc2nc2n1CC[C@@H]2O`, the figures for the IC50 entry in assay [1] (pc-3), in assay [2] (setting [7]) and in assay [3] were “Not Active”, 67.8 µM and “Not Active”, respectively.
For `COC(=O)CCn1cnc2ccccc2c1=O`, the concentration for half-maximal inhibition (IC50) entry in assay [1] (pc-3), in assay [2] (hl-60) and in assay [3] was “Not Active” in each case.
On to `O=c1c2cc(O)ccc2nc2n1CC[C@H]2O`, for which the IC50 result in assay [1] (pc-3), in assay [2] (hl-60) and in assay [3] was “Not Active” throughout.
As for `O=c1c2cc(O)ccc2nc2n1CC[C@@H]2O`, the half-maximal inhibitory concentration (IC50) result in assay [1] (pc-3), in assay [2] (hl-60) and in assay [3] was “Not Active” throughout.
As to `O=c1c2ccccc2nc2n1CC[C@@H]2O[C@@H]1O[C@H](CO[C@@H]2O[C@H](CO)[C@@H](O)[C@H](O)[C@H]2O)[C@@H](O)[C@H](O)[C@H]1O`, the IC50 result in assay [1] (pc-3), in assay [2] (hl-60) and in assay [3] was “Not Active” in each case.
Turning to `O=c1c2ccccc2nc2n1CC[C@@H]2O[C@@H]1O[C@H](CO)[C@@H](O)[C@H](O)[C@H]1O`, the half-maximal inhibitory concentration (IC50) result in assay [1] (pc-3), in assay [2] (hl-60) and in assay [3] was “Not Active” throughout.
`Nc1ccccc1CN1CC[C@@H](O[C@@H]2O[C@H](CO[C@@H]3O[C@H](CO)[C@@H](O)[C@H](O)[C@H]3O)[C@@H](O)[C@H](O)[C@H]2O)C1=O`: the half-maximal inhibitory concentration (IC50) entry in assay [1] (pc-3), in assay [2] (hl-60) and in assay [3] was “Not Active” each time.
For the compound `O=c1[nH]c(CCCO)nc2ccccc12`, the IC50 result in assay [1] (pc-3), in assay [2] (hl-60) and in assay [3] was “Not Active” throughout.
As to `O=c1c2ccccc2nc2n1CC[C@H]2O[C@@H]1O[C@H](CO[C@@H]2O[C@H](CO)[C@@H](O)[C@H](O)[C@H]2O)[C@@H](O)[C@H](O)[C@H]1O`, the IC50 result in assay [1] (pc-3), in assay [2] (hl-60) and in assay [3] was “Not Active” throughout.
For the compound `Nc1ccccc1CN1CC[C@H](O[C@@H]2O[C@H](CO[C@@H]3O[C@H](CO)[C@@H](O)[C@H](O)[C@H]3O)[C@@H](O)[C@H](O)[C@H]2O)C1=O`, the figures for the half-maximal inhibitory concentration (IC50) result in assay [1] (pc-3), in assay [2] (setting [7]) and in assay [3] were “Not Active”, 42.8 µM and “Not Active”, respectively.
For the compound `Nc1ccccc1CN1CC[C@@H](O)C1=O`, the half-maximal inhibitory concentration (IC50) result in assay [1] (pc-3) is “Not Active”; in assay [2] (setting [7]), 42.3 µM; in assay [3], “Not Active”.
Consider `Nc1ccccc1CN1CC[C@H](O)C1=O`, for which the IC50 result in assay [1] (pc-3) is “Not Active”; in assay [2] (setting [7]), 42.3 µM; in assay [3], “Not Active”.
With `O=c1c2ccccc2nc2n1CC[C@H]2O`, the values for the IC50 entry in assay [1] (pc-3), in assay [2] (setting [7]) and in assay [3] were “Not Active”, 67.8 µM and “Not Active”, respectively.
As to `O=c1c2ccccc2nc2n1CCC2O` (racemic), the IC50 in assay [4] is 19.2 µM; in assay [5], 25.3 µM.
`O=c1c2ccccc2nc2n1CCC2` [DEOXYVASICINONE]: the half-inhibitory concentration (IC50) entry in assay [1] (pc-3), in assay [2] (hl-60) and in assay [3] was “Not Active” in each case.
Take `O=c1[nH]cnc2ccccc12` [QUINAZOLINONE]: the IC50 entry in assay [1] (pc-3), in assay [2] (hl-60) and in assay [3] was “Not Active” each time.
Take `O[C@H]1CCN2Cc3ccccc3N=C12` [VASICINE]: the IC50 was 15.4 µM in assay [1] (setting [6]), “Not Active” in assay [2] (hl-60) and “Not Active” in assay [3].
